Source: publication PMC2920070 (Journal of medicinal chemistry, 2010)
Values after ≈ are worked out from the molar mass of the structure shown. Values belong to the molecule of their own block, whether it stands above or below them.

How the values were obtained:
NR1/NR2C = NR1/NR2C (Rattus norvegicus, UniProt P35439+Q00961); test: Two-electrode voltage-clamp, recombinant NR1/NR2C in Xenopus oocytes; format: cell-based; conditions: for response at saturating concentration, NR2C (fitted minimum): fit with variable minimum
NR1/NR2D = NR1/NR2D (Rattus norvegicus, UniProt P35439+Q62645); test: Two-electrode voltage-clamp, recombinant NR1/NR2D in Xenopus oocytes; format: cell-based; conditions: for GluR1/NR2D: (IC50 GluR1)/(IC50 NR2D) / NR2A/NR2D: (IC50 NR2A)/(IC50 NR2D): selectivity ratio; for response at saturating concentration, NR2D (fitted minimum): fit with variable minimum
NR1/NR2D, sequence (Q62645 28-1323, other chains not shown): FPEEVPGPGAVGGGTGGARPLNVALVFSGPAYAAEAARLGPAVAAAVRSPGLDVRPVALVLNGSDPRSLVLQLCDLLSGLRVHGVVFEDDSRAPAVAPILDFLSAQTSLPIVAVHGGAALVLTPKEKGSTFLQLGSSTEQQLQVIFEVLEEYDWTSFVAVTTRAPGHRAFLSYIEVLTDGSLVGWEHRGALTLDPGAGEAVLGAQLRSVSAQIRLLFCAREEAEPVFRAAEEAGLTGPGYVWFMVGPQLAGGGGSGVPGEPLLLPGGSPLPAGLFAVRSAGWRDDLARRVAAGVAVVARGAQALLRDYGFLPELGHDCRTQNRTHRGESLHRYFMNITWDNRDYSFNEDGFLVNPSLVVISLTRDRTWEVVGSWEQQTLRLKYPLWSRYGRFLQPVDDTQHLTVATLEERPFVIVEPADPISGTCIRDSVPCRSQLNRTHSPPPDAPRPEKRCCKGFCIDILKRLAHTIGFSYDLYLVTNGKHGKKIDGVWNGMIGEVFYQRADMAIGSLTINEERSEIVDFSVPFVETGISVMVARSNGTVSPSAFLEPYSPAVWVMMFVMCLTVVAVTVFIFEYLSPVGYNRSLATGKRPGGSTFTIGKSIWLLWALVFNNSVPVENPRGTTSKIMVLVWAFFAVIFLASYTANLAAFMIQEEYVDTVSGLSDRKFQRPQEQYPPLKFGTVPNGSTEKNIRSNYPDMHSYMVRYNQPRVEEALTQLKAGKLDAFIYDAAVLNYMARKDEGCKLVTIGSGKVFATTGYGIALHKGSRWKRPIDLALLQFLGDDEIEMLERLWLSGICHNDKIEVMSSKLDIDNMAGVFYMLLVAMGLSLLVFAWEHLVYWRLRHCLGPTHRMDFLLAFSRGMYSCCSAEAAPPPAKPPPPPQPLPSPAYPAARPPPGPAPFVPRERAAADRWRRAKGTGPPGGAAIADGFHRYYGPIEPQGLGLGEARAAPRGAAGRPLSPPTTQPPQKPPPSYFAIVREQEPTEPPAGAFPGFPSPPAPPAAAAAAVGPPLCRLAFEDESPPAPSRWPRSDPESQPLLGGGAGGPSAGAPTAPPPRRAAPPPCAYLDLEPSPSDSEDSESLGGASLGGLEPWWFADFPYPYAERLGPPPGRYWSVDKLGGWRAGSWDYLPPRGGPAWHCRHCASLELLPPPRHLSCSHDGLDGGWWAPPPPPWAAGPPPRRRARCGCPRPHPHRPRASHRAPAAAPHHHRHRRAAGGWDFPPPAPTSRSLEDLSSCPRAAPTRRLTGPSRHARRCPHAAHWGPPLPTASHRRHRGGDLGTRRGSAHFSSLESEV

GluR1 = GluR1 (Rattus norvegicus, UniProt P19490); test: Two-electrode voltage-clamp, recombinant GluR1; format: cell-based
GluR1, sequence (P19490 19-907): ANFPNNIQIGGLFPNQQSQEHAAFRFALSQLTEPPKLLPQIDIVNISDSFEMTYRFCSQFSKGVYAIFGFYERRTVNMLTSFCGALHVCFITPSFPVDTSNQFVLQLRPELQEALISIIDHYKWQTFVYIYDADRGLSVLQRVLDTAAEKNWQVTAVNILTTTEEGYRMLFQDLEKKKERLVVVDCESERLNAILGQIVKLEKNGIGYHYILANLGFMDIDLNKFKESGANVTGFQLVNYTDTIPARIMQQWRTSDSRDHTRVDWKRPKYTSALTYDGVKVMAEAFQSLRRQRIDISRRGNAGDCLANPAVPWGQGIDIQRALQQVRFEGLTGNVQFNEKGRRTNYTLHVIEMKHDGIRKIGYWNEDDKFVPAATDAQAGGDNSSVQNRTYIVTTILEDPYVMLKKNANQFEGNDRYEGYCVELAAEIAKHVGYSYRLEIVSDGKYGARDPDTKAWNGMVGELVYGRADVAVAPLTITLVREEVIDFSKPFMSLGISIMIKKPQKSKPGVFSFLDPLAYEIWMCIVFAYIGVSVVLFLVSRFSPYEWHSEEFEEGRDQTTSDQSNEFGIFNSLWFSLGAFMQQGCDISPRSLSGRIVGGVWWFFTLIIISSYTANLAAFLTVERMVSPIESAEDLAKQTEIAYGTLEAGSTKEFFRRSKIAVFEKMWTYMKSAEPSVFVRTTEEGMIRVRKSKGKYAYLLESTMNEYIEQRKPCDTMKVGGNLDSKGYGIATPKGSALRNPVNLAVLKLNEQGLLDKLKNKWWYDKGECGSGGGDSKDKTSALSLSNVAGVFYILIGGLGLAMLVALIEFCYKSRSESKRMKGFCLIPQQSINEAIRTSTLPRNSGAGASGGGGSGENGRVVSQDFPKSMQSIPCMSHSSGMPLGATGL

GluR6 = GluR6 (Rattus norvegicus, UniProt P42260); test: Two-electrode voltage-clamp, recombinant GluR6; format: cell-based; conditions: 30 μM compound
NR1/NR2A = NR1/NR2A (Rattus norvegicus, UniProt P35439+Q00959); test: Two-electrode voltage-clamp, recombinant NR1/NR2A in Xenopus oocytes; format: cell-based; conditions: for response at saturating concentration, NR2A (fitted minimum): fit with variable minimum, predicted
NR1/NR2A, sequence (Q00959 23-1464, other chains not shown): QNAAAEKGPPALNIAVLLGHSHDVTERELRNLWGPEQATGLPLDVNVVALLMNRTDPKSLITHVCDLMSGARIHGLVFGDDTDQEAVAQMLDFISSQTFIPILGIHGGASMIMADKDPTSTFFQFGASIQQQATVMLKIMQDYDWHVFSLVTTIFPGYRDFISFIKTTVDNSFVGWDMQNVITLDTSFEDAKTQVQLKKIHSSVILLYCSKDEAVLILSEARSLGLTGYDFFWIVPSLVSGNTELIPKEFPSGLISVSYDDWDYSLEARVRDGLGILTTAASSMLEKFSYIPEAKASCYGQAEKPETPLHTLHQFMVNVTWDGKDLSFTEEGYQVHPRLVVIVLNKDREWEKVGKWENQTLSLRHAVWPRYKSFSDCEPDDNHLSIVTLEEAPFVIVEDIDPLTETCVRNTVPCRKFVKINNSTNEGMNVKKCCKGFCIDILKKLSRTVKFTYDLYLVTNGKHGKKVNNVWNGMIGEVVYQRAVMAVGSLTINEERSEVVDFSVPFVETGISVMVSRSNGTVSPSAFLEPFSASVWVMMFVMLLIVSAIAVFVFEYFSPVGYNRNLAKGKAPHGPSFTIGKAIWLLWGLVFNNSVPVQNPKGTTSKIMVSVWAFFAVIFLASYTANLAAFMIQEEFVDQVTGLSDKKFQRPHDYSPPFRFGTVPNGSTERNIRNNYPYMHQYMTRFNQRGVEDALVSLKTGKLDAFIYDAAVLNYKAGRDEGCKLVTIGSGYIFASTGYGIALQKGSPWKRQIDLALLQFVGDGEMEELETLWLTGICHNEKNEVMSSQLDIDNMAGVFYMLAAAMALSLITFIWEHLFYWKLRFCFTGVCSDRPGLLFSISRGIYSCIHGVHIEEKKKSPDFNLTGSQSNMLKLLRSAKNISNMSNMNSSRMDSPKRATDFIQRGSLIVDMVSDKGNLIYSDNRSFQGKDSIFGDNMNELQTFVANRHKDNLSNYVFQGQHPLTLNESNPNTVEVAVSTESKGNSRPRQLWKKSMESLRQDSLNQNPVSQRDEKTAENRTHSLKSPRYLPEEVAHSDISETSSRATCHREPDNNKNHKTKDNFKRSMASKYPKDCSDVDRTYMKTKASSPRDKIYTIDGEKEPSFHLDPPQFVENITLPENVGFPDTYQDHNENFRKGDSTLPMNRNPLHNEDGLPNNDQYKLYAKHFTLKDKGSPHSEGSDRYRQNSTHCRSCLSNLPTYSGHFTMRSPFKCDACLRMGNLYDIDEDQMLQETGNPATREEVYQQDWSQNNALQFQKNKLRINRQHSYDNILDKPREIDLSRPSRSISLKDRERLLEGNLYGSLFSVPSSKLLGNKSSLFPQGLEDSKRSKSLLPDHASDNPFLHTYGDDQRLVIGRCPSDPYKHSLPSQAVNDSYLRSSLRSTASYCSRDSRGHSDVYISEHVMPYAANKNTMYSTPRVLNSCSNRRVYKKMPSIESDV

NR1/NR2B = NR1/NR2B (Rattus norvegicus, UniProt P35439+Q00960); test: Two-electrode voltage-clamp, recombinant NR1/NR2B in Xenopus oocytes; format: cell-based; conditions: for response at saturating concentration, NR2B (fitted minimum): fit with variable minimum, predicted
NR1/NR2B, sequence (Q00960 27-1482, other chains not shown): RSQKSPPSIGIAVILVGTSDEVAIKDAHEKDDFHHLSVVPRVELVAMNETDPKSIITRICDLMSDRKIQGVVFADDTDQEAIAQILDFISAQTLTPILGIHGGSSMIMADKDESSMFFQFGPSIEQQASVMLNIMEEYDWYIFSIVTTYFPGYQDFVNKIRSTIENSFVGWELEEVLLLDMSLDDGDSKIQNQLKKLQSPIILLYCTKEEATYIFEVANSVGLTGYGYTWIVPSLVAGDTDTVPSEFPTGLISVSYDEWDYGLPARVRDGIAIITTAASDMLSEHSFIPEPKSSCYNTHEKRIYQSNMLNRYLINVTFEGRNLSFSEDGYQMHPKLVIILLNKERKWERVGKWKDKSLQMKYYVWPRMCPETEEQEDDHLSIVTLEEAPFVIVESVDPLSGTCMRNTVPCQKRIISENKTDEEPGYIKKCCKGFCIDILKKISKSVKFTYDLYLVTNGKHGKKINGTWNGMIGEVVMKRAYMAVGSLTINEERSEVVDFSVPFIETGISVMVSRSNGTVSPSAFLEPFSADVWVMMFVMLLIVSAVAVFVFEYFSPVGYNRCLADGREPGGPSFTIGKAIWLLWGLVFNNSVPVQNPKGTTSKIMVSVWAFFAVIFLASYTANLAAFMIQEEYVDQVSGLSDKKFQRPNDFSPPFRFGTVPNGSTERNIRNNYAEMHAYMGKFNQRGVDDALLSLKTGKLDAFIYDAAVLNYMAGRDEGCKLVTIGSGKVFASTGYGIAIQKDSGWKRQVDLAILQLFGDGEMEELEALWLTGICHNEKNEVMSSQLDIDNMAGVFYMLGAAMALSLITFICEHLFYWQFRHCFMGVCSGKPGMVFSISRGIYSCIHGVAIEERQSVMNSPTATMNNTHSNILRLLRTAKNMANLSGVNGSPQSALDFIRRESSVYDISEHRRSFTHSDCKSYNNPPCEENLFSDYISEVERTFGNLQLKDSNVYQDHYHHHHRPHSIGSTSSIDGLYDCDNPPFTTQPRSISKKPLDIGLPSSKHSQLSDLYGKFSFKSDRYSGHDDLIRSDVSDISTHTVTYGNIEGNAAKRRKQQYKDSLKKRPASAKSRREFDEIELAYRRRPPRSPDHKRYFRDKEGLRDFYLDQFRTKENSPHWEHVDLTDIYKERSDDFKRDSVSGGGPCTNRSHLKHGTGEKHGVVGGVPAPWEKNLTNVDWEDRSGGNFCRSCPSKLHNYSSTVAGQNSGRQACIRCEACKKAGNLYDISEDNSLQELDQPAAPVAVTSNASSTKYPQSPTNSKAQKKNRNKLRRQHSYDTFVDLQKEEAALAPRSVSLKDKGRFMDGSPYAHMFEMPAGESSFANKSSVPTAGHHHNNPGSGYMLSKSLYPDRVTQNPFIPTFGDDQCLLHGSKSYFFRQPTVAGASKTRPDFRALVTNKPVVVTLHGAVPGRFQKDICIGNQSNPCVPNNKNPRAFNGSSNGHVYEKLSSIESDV

[1] = Maximum solubility by nephelometry; format: physicochemical; conditions: oocyte recording solution with 1% DMSO, aqueous buffer, kinetic from dmso stock

Molecule: COc1ccccc1-n1c(/C=C/c2ccccc2[N+](=O)[O-])nc2ccccc2c1=O [Compound 3, (E)-3-(2-methoxyphenyl)-2-(2-nitrostyryl)quinazolin-4(3H)-one]
extent of inhibition of NR1/NR2C responses (NR1/NR2C): completely | extent of inhibition of NR1/NR2D responses (NR1/NR2D): completely | fold more potent (lower fitted IC50) at NMDA receptors than AMPA receptors (GluR1): 4-5 fold

Molecule: O=C(O)c1ccc(-n2c(/C=C/c3ccccc3)nc3ccccc3c2=O)cc1 [Compound 23]
IC50 (NR1/NR2C): 39 µM

Molecule: COc1ccc(/C=C/c2nc3ccccc3c(=O)n2-c2ccc(C(=O)O)cc2)cc1 [Compound 24]
IC50 (NR1/NR2C): 42 µM

Molecule: COc1cccc(/C=C/c2nc3ccccc3c(=O)n2-c2ccc(C(=O)O)cc2)c1 [Compound 25]
IC50 (NR1/NR2C): 17 µM

Molecule: COc1ccccc1/C=C/c1nc2ccccc2c(=O)n1-c1ccc(C(=O)O)cc1 [Compound 26]
IC50 (NR1/NR2C): 32 µM

Molecule: O=C(O)c1ccc(-n2c(/C=C/c3ccc(C(F)(F)F)cc3)nc3ccccc3c2=O)cc1 [Compound 27]
IC50 (NR1/NR2C): 23 µM

Molecule: O=C(O)c1ccc(-n2c(/C=C/c3cccc(C(F)(F)F)c3)nc3ccccc3c2=O)cc1 [Compound 28]
IC50 (NR1/NR2C): 8 µM

Molecule: O=C(O)c1ccc(-n2c(/C=C/c3ccccc3C(F)(F)F)nc3ccccc3c2=O)cc1 [Compound 29]
IC50 (NR1/NR2C): 88 µM | GluR1/NR2D: (IC50 GluR1)/(IC50 NR2D) (NR1/NR2D): >10 | NR2A/NR2D: (IC50 NR2A)/(IC50 NR2D) (NR1/NR2D): >10

Molecule: O=C(O)c1ccc(-n2c(/C=C/c3ccc(O)cc3)nc3ccccc3c2=O)cc1 [Compound 30]
IC50 (NR1/NR2C): 50 µM

Molecule: Cc1ccc(/C=C/c2nc3ccccc3c(=O)n2-c2ccc(C(=O)O)cc2)cc1 [Compound 33]
IC50 (NR1/NR2C): 28 µM | GluR1/NR2D: (IC50 GluR1)/(IC50 NR2D) (NR1/NR2D): >17

Molecule: Cc1cccc(/C=C/c2nc3ccccc3c(=O)n2-c2ccc(C(=O)O)cc2)c1 [Compound 34]
IC50 (NR1/NR2C): 28 µM | GluR1/NR2D: (IC50 GluR1)/(IC50 NR2D) (NR1/NR2D): >16

Molecule: O=C(O)c1ccc(-n2c(/C=C/c3cccc([N+](=O)[O-])c3)nc3cc4c(cc3c2=O)OCO4)cc1 [Compound 52, (E)-4-(6-(3-nitrostyryl)-8-oxo-[1,3]dioxolo[4,5-g]quinazolin-7(8H)-yl)benzoic acid]
GluR1/NR2D: (IC50 GluR1)/(IC50 NR2D) (NR1/NR2D): >8

Molecule: COc1ccc2nc(/C=C/c3cccc(C(=O)O)c3)n(-c3ccc(C(=O)O)cc3)c(=O)c2c1 [Compound 62, (E)-3-(2-(3-(4-carboxyphenyl)-6-methoxy-4-oxo-3,4-dihydroquinazolin-2-yl)vinyl)benzoic acid]
GluR1/NR2D: (IC50 GluR1)/(IC50 NR2D) (NR1/NR2D): >2 | NR2A/NR2D: (IC50 NR2A)/(IC50 NR2D) (NR1/NR2D): >2

Molecule: COc1ccc2nc(/C=C/c3ccc(OC(C)=O)c(OC(C)=O)c3)n(-c3ccc(C(=O)O)cc3)c(=O)c2c1 [Compound 64, (E)-4-(2-(3,4-diacetoxystyryl)-6-methoxy-4-oxoquinazolin-3(4H)-yl)benzoic acid]
IC50 (NR1/NR2A): > 300 µM | IC50 (NR1/NR2B): > 300 µM | IC50 (NR1/NR2C): 124 µM | IC50 (NR1/NR2D): 52 µM | GluR1/NR2D: (IC50 GluR1)/(IC50 NR2D) (NR1/NR2D): >6 | NR2A/NR2D: (IC50 NR2A)/(IC50 NR2D) (NR1/NR2D): >6 | IC50 (GluR1): > 300 µM

Molecule: N#Cc1ccc(/C=C/c2nc3ccccc3c(=O)n2-c2ccc(C(=O)O)cc2)cc1 [Compound 66]
GluR1/NR2D: (IC50 GluR1)/(IC50 NR2D) (NR1/NR2D): >9

Molecule: C=CCOc1ccc(/C=C/c2nc3ccccc3c(=O)n2-c2ccc(C(=O)O)cc2)cc1 [Compound 69]
GluR1/NR2D: (IC50 GluR1)/(IC50 NR2D) (NR1/NR2D): >10 | NR2A/NR2D: (IC50 NR2A)/(IC50 NR2D) (NR1/NR2D): >10

Molecule: Cc1nc2ccc(I)cc2c(=O)n1-c1ccc(C(=O)O)cc1 [Compound 78, 4-(6-Iodo-2-methyl-4-oxoquinazolin-3(4H)-yl)benzoic acid]
inhibitory activity (NR1/NR2D; concentrations up to 100 μM): total loss of inhibitory activity

Molecule: Cc1ccc2nc(CCc3ccccc3)n(-c3ccc(C(=O)O)cc3)c(=O)c2c1 [Compound 81, 4-(6-Methyl-4-oxo-2-phenethylquinazolin-3(4H)-yl)benzoic acid]
potency reduction on saturating the styryl linker (81 vs 80) (NR1/NR2D): 10 fold

Molecule: O=C(O)c1ccc(-n2c(/C=C/c3ccc4ccccc4c3)nc3ccccc3c2=O)cc1 [Compound 82]
GluR1/NR2D: (IC50 GluR1)/(IC50 NR2D) (NR1/NR2D): >50

Molecule: O=C(O)c1ccc(-n2c(/C=C/c3ccc4c(c3)OCCO4)nc3ccccc3c2=O)cc1 [Compound 86]
GluR1/NR2D: (IC50 GluR1)/(IC50 NR2D) (NR1/NR2D): >18 | NR2A/NR2D: (IC50 NR2A)/(IC50 NR2D) (NR1/NR2D): >18

Molecule: COc1cccc(-n2c(/C=C/c3cccnc3)nc3ccc(I)cc3c2=O)c1 [Compound 90]
IC50 (NR1/NR2D): 200 µM

Molecule: (E)-4-(6,7-dimethoxy-2-(3-nitrostyryl)-4-oxoquinazolin-3(4H)-yl)benzoic acid [Compound 63]
GluR1/NR2D: (IC50 GluR1)/(IC50 NR2D) (NR1/NR2D): 7

The remaining lines, values ahead:

extent of inhibition of NR1/NR2C responses (NR1/NR2C): completely | mode of inhibition at NR1/NR2C (NR1/NR2C): non-competitive | voltage dependence of inhibition at NR1/NR2C (NR1/NR2C): voltage-independent | extent of inhibition of NR1/NR2D responses (NR1/NR2D): completely | voltage dependence of inhibition at NR1/NR2D (NR1/NR2D; 10 μM compound, -40 mV vs +40 mV): voltage-independent | mode of inhibition at NR1/NR2D (NR1/NR2D; 30 μM compound, glutamate/glycine raised from 100/30 μM to 1000/300 μM): non-competitive | fold more potent (lower fitted IC50) at NMDA receptors than AMPA receptors (GluR1): 4-5 fold
Molecule: O=C(O)c1ccc(-n2c(/C=C/c3cccc([N+](=O)[O-])c3)nc3ccccc3c2=O)cc1 [Compound 2, (E)-4-(2-(3-nitrostyryl)-4-oxoquinazolin-3(4H)-yl)benzoic acid]

GluR1/NR2D: (IC50 GluR1)/(IC50 NR2D) (NR1/NR2D): >20 | NR2A/NR2D: (IC50 NR2A)/(IC50 NR2D) (NR1/NR2D): >20
Molecule: O=C(O)c1ccc(-n2c(/C=C/c3cccc([N+](=O)[O-])c3)nc3cccc(Cl)c3c2=O)cc1 [Compound 36, (E)-4-(5-chloro-2-(3-nitrostyryl)-4-oxoquinazolin-3(4H)-yl)benzoic acid]

GluR1/NR2D: (IC50 GluR1)/(IC50 NR2D) (NR1/NR2D): >50 | NR2A/NR2D: (IC50 NR2A)/(IC50 NR2D) (NR1/NR2D): >50
Molecule: O=C(O)c1ccc(-n2c(/C=C/c3ccc([N+](=O)[O-])cc3)nc3c(Cl)cc(Cl)cc3c2=O)cc1 [Compound 41, (E)-4-(6,8-dichloro-2-(4-nitrostyryl)-4-oxoquinazolin-3(4H)-yl)benzoic acid]

IC50 (NR1/NR2C): 14 µM
Molecule: O=C(O)c1ccc(-n2c(/C=C/c3cccc([N+](=O)[O-])c3)nc3ccc(F)cc3c2=O)cc1 [Compound 42, (E)-4-(6-fluoro-2-(3-nitrostyryl)-4-oxoquinazolin-3(4H)-yl)benzoic acid]

selectivity for NR2C/D (NR2D) over NR2A/B (NR1/NR2D): > 50 fold | effect on GluR6 responses (GluR6): No significant effect
Molecule: COc1ccc2nc(/C=C/c3cccc([N+](=O)[O-])c3)n(-c3ccc(C(=O)O)cc3)c(=O)c2c1 [Compound 46, (E)-4-(6-methoxy-2-(3-nitrostyryl)-4-oxoquinazolin-3(4H)-yl)benzoic acid]

response at saturating concentration, NR2A (fitted minimum) (NR1/NR2A): 68 % of control | response at saturating concentration, NR2B (fitted minimum) (NR1/NR2B): 51 % of control | response at saturating concentration, NR2C (fitted minimum) (NR1/NR2C): 22 % of control | response at saturating concentration, NR2D (fitted minimum) (NR1/NR2D): 14 % of control
Molecule: O=C(O)c1ccc(-n2c(/C=C/c3cccc([N+](=O)[O-])c3)nc3ccc(-c4ccccc4)cc3c2=O)cc1 [Compound 49, (E)-4-(2-(3-nitrostyryl)-4-oxo-6-phenylquinazolin-3(4H)-yl)benzoic acid]

response at saturating concentration, NR2A (fitted minimum) (NR1/NR2A): 68 % of control | response at saturating concentration, NR2B (fitted minimum) (NR1/NR2B): 50 % of control | response at saturating concentration, NR2C (fitted minimum) (NR1/NR2C): 26 % of control | response at saturating concentration, NR2D (fitted minimum) (NR1/NR2D): 20 % of control
Molecule: O=C(O)c1ccc(-n2c(/C=C/c3cccc([N+](=O)[O-])c3)nc3cc4ccccc4cc3c2=O)cc1 [Compound 50, (E)-4-(2-(3-nitrostyryl)-4-oxobenzo[g]quinazolin-3(4H)-yl)benzoic acid]

response at saturating concentration, NR2C (fitted minimum) (NR1/NR2C): 31 % of control | response at saturating concentration, NR2D (fitted minimum) (NR1/NR2D): 26 % of control | GluR1/NR2D: (IC50 GluR1)/(IC50 NR2D) (NR1/NR2D): >220 | effect on GluR6 responses (GluR6): No significant effect | solubility [1]: 10 µM (≈ 5.39 µg/mL)
Molecule: O=C(O)c1ccc(-n2c(/C=C/c3ccc([N+](=O)[O-])cc3)nc3ccc(I)cc3c2=O)cc1 [Compound 72, (E)-4-(6-iodo-2-(4-nitrostyryl)-4-oxoquinazolin-3(4H)-yl)benzoic acid]

GluR1/NR2D: (IC50 GluR1)/(IC50 NR2D) (NR1/NR2D): >37 | NR2A/NR2D: (IC50 NR2A)/(IC50 NR2D) (NR1/NR2D): >37
Molecule: O=C(O)c1cccc(-n2c(/C=C/c3ccc([N+](=O)[O-])cc3)nc3ccc(I)cc3c2=O)c1 [Compound 73, (E)-3-(6-iodo-2-(4-nitrostyryl)-4-oxoquinazolin-3(4H)-yl)benzoic acid]

GluR1/NR2D: (IC50 GluR1)/(IC50 NR2D) (NR1/NR2D): >42
Molecule: COc1ccc2nc(/C=C/c3ccc([N+](=O)[O-])cc3)n(-c3ccc(C(=O)O)cc3)c(=O)c2c1 [Compound 75, (E)-4-(6-methoxy-2-(4-nitrostyryl)-4-oxoquinazolin-3(4H)-yl)benzoic acid]

GluR1/NR2D: (IC50 GluR1)/(IC50 NR2D) (NR1/NR2D): >19
Molecule: COc1ccc2nc(/C=C/c3ccc([N+](=O)[O-])cc3)n(-c3cccc(C(=O)O)c3)c(=O)c2c1 [Compound 76, (E)-3-(6-methoxy-2-(4-nitrostyryl)-4-oxoquinazolin-3(4H)-yl)benzoic acid]
